Assay results from patent publication US12545643B2, “3,5-diaminobenzoic acid compound, and Pin1 inhibitor and therapeutic agent for inflammatory diseases using same” (Amenis Bioscience, Inc., priority 2020, dated 2026).

Columns and labels:
SARS-CoV-2 = SARS-CoV-2 proliferation suppression study (nucleocapsid Western blot in VeroE6/TMPRSS2 cells); assay type: cell-based; settings: for inhibition at 20 µM: Severe acute respiratory syndrome coronavirus 2, 20 μM, MOI 10, lysate 8 hours after infection, read-out: Inhibition rate (SARS-CoV-2 nucleocapsid band area)
Pin1 [1] = target: T1, Pin1 (Homo sapiens, UniProt Q13526); assay: Cell-based assay of Pin1 inhibition (AMPK phosphorylation level as index, Western blot); design: endogenous in cells; host or cells: 293T cells; key: +++: a higher level of AMPK phosphorylation is promoted, as compared with C1; ++: a similar level of AMPK phosphorylation is promoted, as compared with C1; +: a lower level of AMPK phosphorylation is promoted, as compared with C1; −: no or almost no promotion is found in AMPK phosphorylation; settings: 293T cells, compound at 50 μM, 10 mM 2-DG, pAMPK level compared with known Pin1 inhibitor C1
T1 sequence (Q13526 whole entry): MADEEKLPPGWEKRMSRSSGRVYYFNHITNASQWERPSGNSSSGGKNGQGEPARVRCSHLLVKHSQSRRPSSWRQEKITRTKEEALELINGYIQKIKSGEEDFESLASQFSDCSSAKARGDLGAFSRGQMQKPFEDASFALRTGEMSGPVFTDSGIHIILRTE
Protocol: To evaluate the inhibitory activity of each compound synthesized in Example 1 against the function of Pin1, a cell-based assay was performed according to the method previously developed by the inventors (Yusuke Nakatsu et al., Journal of Biological Chemistry, 2015, Vol. 290, No. 40, pp. 24255-24266), in which the phosphorylation level of AMPK (AMP-activated protein kinase), a protein whose phosphorylation is suppressed by Pin1, was examined as an index.
Briefly, 293T cells were plated on a collagen-coated 24-well plate. Forty-eight hours later, each compound synthesized in the preceding example (at 50 μM) was added to the plate, and the plate was left to stand in an incubator for 30 minutes. Subsequently, 10 mM 2-DG was added to the plate, and one hour later, each sample was collected with a buffer containing mercaptoethanol and SDS.
SDS-PAGE and blotting were performed, and blocking was then performed with 3% BSA for 1 hour, according to conventional protocols. Subsequently, a pAMPK antibody (Cell Signaling; diluted 1:2000 in Can Get Signal Solution 1, Toyobo) as a primary antibody, and an HRP-linked anti rabbit IgG (GE Healthcare; diluted 1:4000 in Can Get Signal Solution 2, Toyobo) as a secondary antibody were allowed to react at ambient temperature for 1 hour prior to detection.
The inhibitory activity against the function of Pin1 was evaluated as indicated below by comparing the inhibition levels between each compound and a known Pin1 inhibitor, C1 ((R)-2-(5-(4-methoxyphenyl)-2-methylfuran-3-carboxamido)-3-(naphthalene-6-yl) propanoic acid):
(+++): a higher level of AMPK phosphorylation is promoted, as compared with C1;
(++): a similar level of AMPK phosphorylation is promoted, as compared with C1;
(+): a lower level of AMPK phosphorylation is promoted, as compared with C1;
(−): no or almost no promotion is found in AMPK phosphorylation.

[2] = system: non-alcoholic steatohepatitis (NASH) model mice; assay: NASH treatment study in HFD-fed NASH model mice; assay type: in vivo; settings: 5 mg/kg/day orally three times a week, 8 weeks
Protocol: Animal experiments were performed using non-alcoholic steatohepatitis (NASH) model mice to test the compounds according to the present invention for the therapeutic effect on NASH. NASH model mice (hereinafter referred to as “NASH mice”) were produced by feeding a high-fat and high-cholesterol diet containing palm oil (HFD) to individual 8-week-old male laboratory mice for 8 weeks. The mice were divided into groups during 8 weeks of the HFD-feeding period, and animal experiments were performed on a group of mice to which a compound according to the present invention (H-686) was administered orally at a dose of 5 mg/kg/day three times a week, and a group of mice to which nothing was administered. In addition, a normal diet was given to individual 8-week-old male laboratory mice for 8 weeks to prepare control mice. FIGS. 1 (A) and 1 (B) show the results of measurements of body weight and liver weight of these mice respectively. FIGS. 2 (A) and 2 (B) show the results of measurements of blood AST (GOT) concentration and blood ALT (GPT) concentration. respectively. Then FIGS. 3 (A) and 3 (B) show the results of measurements of mRNA expression levels of Colla1 (collagen, type I, alpha 1 chain) and Colla2 (collagen, type I, alpha 2 chain), respectively.

Pin1 [3] = target: T1, Pin1; assay: Cell-free assay of peptidylprolyl isomerase activity (absorbance at 330 nm, substrate Suc-Ala-Glu-Pro-Phe-pNA); assay type: biochemical; settings: compound 10 μM, Pin1 5 nM, substrate peptide 60 μM, 10° C.; read-out: Pin1 inhibition activity Cell-free assay (inhibition ratio)
Protocol: For some compounds synthesized in Example 1, the inhibitory activity against the function of Pin1 was measured by a cell-free assay based on the method by Janowski et al. (AnalyticalBiochemistry, 1997, Vol. 252, Issue 2, pp. 299-307) because there is an assay measuring peptidylprolylisomerase activity without cells (cell-free).
Briefly, an assay buffer (containing 35 mM HEPES, pH 7.8, 50 μM DTT and 0.0025% NP40) was equilibrated to 10° C. in a quartz cell with stirring function. To this solution was added the compound dissolved in DMSO (10 μM) and then UV spectrum of the resulting solution was immediately measured. Then Pin1 (final concentration of 5 nM) was added to the solution. The reaction was initiated by adding a substrate peptide (Suc-Ala-Glu-Pro-Phe-pNA) dissolved in 0.5 M LiCl solution in trifluoroethanol (final concentration of 60 μM). After reaction was initiated, the change of absorbance at 330 nm was measured for 5 minutes. The resultant reaction curve was fitted to a first order decay model to calculate the reaction rate. The catalytic reaction rate was calculated by subtracting the background rate from the reaction rate. The inhibition ratio (%) was calculated from the catalytic reaction rates in the presence and absence of the compound. The higher inhibition ratio means the higher inhibitory activity against Pin1 function.

NASH-induced mice = settings: cited from earlier work

Structure (SMILES) | inhibition at 20 µM (SARS-CoV-2) | Pin1 inhibition activity Cell-based assay (Pin1 [1]) | inhibition at 10 µM (Pin1 [3]) | also measured
COC(=O)c1cc(NC(=O)c2cccnc2)cc(NC(=O)n2c3ccccc3c3ccccc32)c1 [Compound H-680] | 53% | − (Hydrolysis causes conversion to H-682) |  | 
COC(=O)c1cc(NC(=O)c2ccc3ccccc3n2)cc(NC(=O)n2c3ccccc3c3ccccc32)c1 [Compound H-684] | 66% | ++ (Hydrolysis causes conversion to H-688) |  | 
COC(=O)c1cc(NC(=O)c2cnc3ccccc3n2)cc(NC(=O)n2c3ccccc3c3ccccc32)c1 [Compound H-685] | 58% | + |  | 
COC(=O)c1cc(NC(=O)c2ccc3c(c2)OCCO3)cc(NC(=O)n2c3ccccc3c3ccccc32)c1 [Compound H-686] |  | ++ (Hydrolysis causes conversion to H-692) |  | body weight (weight gain) ([2]; FIG. 1 (A)): weight gain in the mice given H-686 was suppressed; liver weight (increase) ([2]; FIG. 1 (B)): the increase in liver weight was significantly suppressed; blood AST (GOT) concentration ([2]; FIG. 2 (A)): the AST value was decreased; blood ALT (GPT) concentration ([2]; FIG. 2 (B)): the ALT value was decreased; mRNA expression level of Colla1 (collagen, type I, alpha 1 chain) ([2]; FIG. 3 (A)): the expression level of Colla1 was suppressed; mRNA expression level of Colla2 (collagen, type I, alpha 2 chain) ([2]; FIG. 3 (B)): the suppression of the expression level was observed; fat accumulation in liver tissue (microscopic observation) ([2]; FIG. 4): suppressed fat accumulation
O=C(O)c1cc(NC(=O)c2ccc3ccccc3n2)cc(NC(=O)n2c3ccccc3c3ccccc32)c1 [Compound H-688] | 98% | ++ |  | suppressing effect against SARS-CoV-2 proliferation (SARS-CoV-2; 5 μM or 10 μM, MOI 10, 8 hours after infection, FIG. 5): observed to have a suppressing effect against SARS-CoV-2 proliferation
COC(=O)c1cc(NC(=O)COc2ccccn2)cc(NC(=O)n2c3ccccc3c3ccccc32)c1 [Compound H-762] | 83% | − (Hydrolysis causes conversion to H-763) |  | 
O=C(COc1ccccn1)Nc1cc(NC(=O)n2c3ccccc3c3ccccc32)cc(C(=O)O)c1 [Compound H-763] | 97% | − | 24.6% | 
O=C(CNC(=O)c1ccccc1)Nc1cc(NC(=O)n2c3ccccc3c3ccccc32)cc(C(=O)O)c1 [Compound H-767] |  | − | 74.8% | 
O=C(CNC(=O)OCc1ccccc1)Nc1cc(NC(=O)n2c3ccccc3c3ccccc32)cc(C(=O)O)c1 [Compound H-769] |  | − | 15.9% | 
O=C(CN(c1ccccc1)c1ccccc1)Nc1cc(NC(=O)c2ccc3ccccc3c2)cc(C(=O)O)c1 [Compound H-819] | 95% |  | 62% | 
O=C(CN(c1ccccc1)c1ccccc1)Nc1cc(NC(=O)c2ccc3ccccc3n2)cc(C(=O)O)c1 [Compound H-821] | 95% |  | 94.4% | 
O=C1C=CC(=O)c2c(O)cccc21 [Juglone] |  |  |  | development of NASH (NASH-induced mice): ameliorates the development of NASH
